Tests used:
Human Leucocyte Elastase = target: T1, Human Leucocyte Elastase (Homo sapiens, UniProt P08246); test: Inactivation of Human Leucocyte Elastase (HLE-catalyzed hydrolysis of N-Methoxysuccinyl-L-Ala-L-Ala-L-Pro-L-Val-p-nitroanilide); type: biochemical; details: for kinact/KI: second order rate constant, pH 7.5, 25° C., read-out: kobs/I; for times more potent than PC1: compared with PC1, kobs/I=3.3×10^4 M^-1 s^-1
T1 construct: Human leucocyte elastase from human sputum was purchased from elastin corporation; purchased elastin corporation; host or cells: human sputum
T1 sequence (P08246 30-247 limits assumed): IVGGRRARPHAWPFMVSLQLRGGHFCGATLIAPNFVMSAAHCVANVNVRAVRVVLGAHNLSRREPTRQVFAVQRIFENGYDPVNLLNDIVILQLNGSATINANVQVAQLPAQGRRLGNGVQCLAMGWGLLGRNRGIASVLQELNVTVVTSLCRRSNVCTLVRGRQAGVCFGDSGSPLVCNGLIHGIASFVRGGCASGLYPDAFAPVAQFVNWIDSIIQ
Description: Therefore, second order rate constants (kobs /I, M^-1 s^-1), (I=concentration inhibitor molar) shown in Formula 1, were determined by following the inactivation of the enzyme for 2 hours as described in the experimental section. […] The results are plotted as % of relative remaining activity vs time which is the absolute remaining activity in the presence of inhibitor divided by the absolute remaining activity of the free enzyme in absence of inhibitor for the same time interval.
In such a case a semilog plot of the relative remaining activity (A/Ao) vs time would describe a curve approaching the fractional activity (F) at longer times whereas a semilog plot of (A/Ao-F)/(1-F) vs time will be linear with a slope equal to the kobs, the pseudofirst order rate constant (equation 2).
The inactivation of HLE enzyme appears to involve the chemical modification of one residue on the enzyme and the pseudofirst order rate constant kobs divided by the concentration of the inhibitor (I) can be used as a measure of the inhibitory activity of the compounds (equation 3).
Human leucocyte elastase from human sputum was purchased from elastin corporation. Hepes, 4-(2-hydroxyethyl)-1-piperazineethanesulfonic acid, was purchased from Aldrich Chemical Co. (Milwaukee, Wis.). Substrate N-Methoxysuccinyl-L-Ala-L-Ala-L-Pro-L-Val-p-nitroanilide was purchased from Sigma Chemicals. Absorbance was measured with a VARIAN CARY-2200 spectrophotometer at 410 nm.
5 μl of acetate buffer (0.05M Sodium Acetate adjusted with 6N HCl to ph=5.5) is added to the reference cuvette, and the cuvette is shaken for 15 seconds to mix the solution. 5 μl of HLE 3.7×10^-5 M in acetate buffer is added to the sample cuvette and the cuvette is shaken for 15 seconds. Both cuvettes were placed in the jacketed cuvette holders of the spectrophotometer and incubated at 25° C. for a fixed time interval up to 2 hours (Incubation periods of 3, 4, 5, 7, 10, 15, 20, 30, 45, 60, 90 and 120 minutes were used).
Shortly before the incubation period ends, the cuvettes are balanced at 410 nm. […] The cuvettes are shaken for 15 seconds and the absorbance is recorded at 410 nm at 1 min, 2 min and 3 min after addition of substrate. A control in which 50 μl of dimethyl sulfoxide used to dissolve the inhibitor is added in its place, is done in the same manner as above for each incubation period.
Absorbance of sample is the absolute remaining activity of HLE (A), and absorbance of control is the total activity of HLE (Ao).
% Relative Remaining Activity=(A/Ao)×100
The % relative remaining activity of the HLE for each inhibitor is plotted against the time of incubation and from the slope of the semilog plot the kobs is determined.
The equation that describes this model is:
A/Ao=(1-F)e^-Kobst +F (equation 1)
Rearranging results in a linear relationship
Ln ((A/Ao)-F/1-F)=-kobs t (equation 2)
A semilog plot results in a straight line with slope=kobs, the pseudofirst order rate constant ksec =kobs /I (equation 3)
The ksec is the second order independent rate constant that is used to compare the inhibitory activity of the compounds against HLE.

[1] = Stability in excess of methanol with normal phase HLPC/HPLC; type: physicochemical
Description: The flow was maintained at 1 ml/min, and a KRATOS variable UVdetector at 265 nm was used. Two separate experiments were conducted under the above conditions in which the stability of (1E) was [drawing 16] monitored in excess of methanol.
The above two experiments indicate that (1E) is consumed at the same rate as the thiol tetrazole (D) is produced. The thiol tetrazole (D) is exclusively produced from the degradation of the thiocarbamate with methanol. In other words (1E) reacts with methanol to give thiol tetrazole (D) and most probably N-n-butyl, methylcarbamate which cannot be detected under the above conditions.

[2] = inactivation followed for 2 hours

| kinact/KI (Human Leucocyte Elastase; [2]) [M⁻¹ s⁻¹] | SMILES | inhibition of HLE (Human Leucocyte Elastase) | also measured |
| --- | --- | --- | --- |
| – | Nc1ccccc1 [Compound 4A] | None of the corresponding amines (1A, 2A, 3A, 4A, 5A and 6A) nor 1-phenyl-1H-tetrazole-5-thiol (D) inhibited HLE | – |
| 3300 | CC(C)NC(=O)Sc1nnnn1-c1ccccc1 [Compound 3E, N-isopropyl, 1-phenyl-1H-tetrazole-5-thiocarbamate] | – | times more active than 4E (Human Leucocyte Elastase; compared with (4E), kobs/I): 10 times |
| – | C=CCN [Compound 2A] | None of the corresponding amines (1A, 2A, 3A, 4A, 5A and 6A) nor 1-phenyl-1H-tetrazole-5-thiol (D) inhibited HLE | – |
| – | CCCCN [Compound 1A, n-butylamine] | None of the corresponding amines (1A, 2A, 3A, 4A, 5A and 6A) nor 1-phenyl-1H-tetrazole-5-thiol (D) inhibited HLE | – |
| 190 | O=C(Nc1ccccc1)Sc1nnnn1-c1ccccc1 [Compound 4E, N-phenyl, 1-phenyl-1H-tetrazole-5-thiocarbamate] | – | – |
| – | Sc1nnnn1-c1ccccc1 [D, 1-phenyl-1H-tetrazole-5-thiol] | None of the corresponding amines (1A, 2A, 3A, 4A, 5A and 6A) nor 1-phenyl-1H-tetrazole-5-thiol (D) inhibited HLE | – |
| 61000 | C=CCNC(=O)Sc1nnnn1-c1ccccc1 [Compound 2E, N-allyl, 1-phenyl-1H-tetrazole-5-thiocarbamate] | – | times more potent than PC1 (Human Leucocyte Elastase): 2 times |
| – | CC(C)N(C(=O)Sc1nnnn1-c1ccccc1)C(C)C [Compound 6E, N, N-diisopropyl, 1-phenyl-1H-tetrazole-5-thiocarbamate] | no inhibitory activity | kobs/I (class symbol) (Human Leucocyte Elastase; [2]): N.I. |
| – | CCCCNCC [Compound 5A, ethyl, butylamine] | None of the corresponding amines (1A, 2A, 3A, 4A, 5A and 6A) nor 1-phenyl-1H-tetrazole-5-thiol (D) inhibited HLE | – |
| – | CC(C)NC(C)C [Compound 6A] | None of the corresponding amines (1A, 2A, 3A, 4A, 5A and 6A) nor 1-phenyl-1H-tetrazole-5-thiol (D) inhibited HLE | – |
| 210000 | CCCCNC(=O)Sc1nnnn1-c1ccccc1 [Compound 1E, N-butyl, 1-phenyl-1H-tetrazole-5-thiocarbamate] | – | stability [1]: fairly stable; half-life ([1]; calculated from the pseudofirst order rate constants): 17 days; times more potent than PC1 (Human Leucocyte Elastase): 10 times |
| – | CC(C)N [Compound 3A, isopropyl amine] | None of the corresponding amines (1A, 2A, 3A, 4A, 5A and 6A) nor 1-phenyl-1H-tetrazole-5-thiol (D) inhibited HLE | – |
| 180 | CCCCN(CC)C(=O)Sc1nnnn1-c1ccccc1 [Compound 5E, N-ethyl-N-butyl, 1-phenyl-1H-tetrazole-5-thiocarbamate] | – | – |
